# In US5886027A, “Fungicidal compounds” (BTG International Limited, priority 1995, dated 1999):
# Columns and labels:
# [1] = Jacobsen and Wengel, Pestic. Sci., 1986, 17, 686-690; cited from earlier work
# [2] = tested on: Erysiphe graminis f.sp hordei; parameters: species or system Erysiphe graminis f.sp hordei (barley powdery mildew); conditions: in vivo
# Rhizoctonia solani = assay: microbe, parasite or virus in culture; assay type: cell-based
# [3] = tested on: Pseudocercosporella herpotrichoides; assay: Further in vitro assay, W-type and R-type isolates of Pseudocercosporella herpotrichoides; assay type: cell-based
# Pyricularia oryzae = assay: microbe, parasite or virus in culture; assay type: cell-based
# [4] = tested on: Pseudocercosporella herpotrichoides; assay: microbe, parasite or virus in culture; assay type: cell-based, Pseudocercosporella herpotrichoides (eyespot)
# Botrytis cinerea = assay: microbe, parasite or virus in culture; assay type: cell-based, Botrytis cinerea (grey mould)
# Fusarium graminearum = assay: microbe, parasite or virus in culture; assay type: cell-based
# Fusarium sulphureum = assay: Further in vitro assay, isolates of Fusarium sulphureum; assay type: cell-based; conditions: F. sulphureum, Table 2(f)
# Neurospora crassa = assay: microbe, parasite or virus in culture; assay type: cell-based
# 14 day old seedlings = assay: Phytotoxic effects on sprayed 14 day old seedlings; assay type: in vivo, barley; conditions: dosage levels below those currently used for triazole fungicides
# Rhynchosporium secalis = assay type: cell-based, Rhynchosporium secalis (barley leaf blotch)
# Septoria tritici = assay: microbe, parasite or virus in culture; assay type: cell-based, Septoria tritici (wheat leaf blotch)
# Helminthosporium solani = assay: Further in vitro assay, isolates of Helminthosporium solani; assay type: cell-based; conditions: H. solani, Table 2(e)
# Aspergillus niger = assay: microbe, parasite or virus in culture; assay type: cell-based
# Ustilago maydis = assay: microbe, parasite or virus in culture; assay type: cell-based, Ustilago maydis (maize smut)
# [5] = Rhizoctonia solani, read-out: % inhibition of growth in colony diameter
# [6] = read-out: % inhibition of growth in colony diameter
# [7] = Aspergillus niger, read-out: % inhibition of growth in colony diameter
smiles,measurement,setting,value
CC(C)c1cc2c(o1)C(=O)c1ccccc1C2=O [(A)],fungicidal activity,[1],inactive
CC(C)(C)C(O)C(Oc1ccc(Cl)cc1)n1cncn1 (stereo not drawn) [Triadimenol],Sensitivity of isolate (S/R),[2],S and R
"COC(=O)Nc1nc2ccccc2[nH]1 [Carbendazim, reference compound]",inhibition at 1 µg/mL,Rhizoctonia solani; [5],3.3%
same,inhibition at 4 µg/mL,Rhizoctonia solani; [5],81.2%
same,Sensitivity to Carbendazim,[3]; R-type isolate (first line),Sensitive
same,Sensitivity to Carbendazim,[3]; R-type isolate (second line),Resistant
same,Sensitivity to Carbendazim,[3]; W-type isolate (first line),Sensitive
same,Sensitivity to Carbendazim,[3]; W-type isolate (second line),Resistant
same,inhibition at 1 µg/mL,Pyricularia oryzae; [6],14.7%
same,inhibition at 4 µg/mL,Pyricularia oryzae; [6],99.4%
CCC1(CC)CC2=C(O1)C(=O)c1ccccc1C2=O [(B)],fungicidal activity,[1],intermediate fungicidal activity
c1ccc2[nH]cnc2c1 [Benzimidazole],Sensitivity (R),[4],R
same,Sensitivity (S/R),Botrytis cinerea,R and S
same,Sensitivity (R),Fusarium graminearum; isolate JF18,R
CC1OC2=C(C(=O)C(=O)c3ccccc32)C1(C)C (stereo not drawn) [dunnione],fungicidal effect (in words),[2],fungicidally effective
same,fungicidal activity (in words),Rhizoctonia solani,active
same,inhibition at 4 µg/mL,Rhizoctonia solani; [5],37%
same,inhibition at 20 µg/mL,Rhizoctonia solani; [5],93%
same,inhibition at 100 µg/mL,Rhizoctonia solani; [5],100%
same,cross-resistance with thiabendazole,Fusarium sulphureum,no evidence of cross-resistance
same,anti-fungal activity (in words),Neurospora crassa,Significant activity
same,IC50,"Neurospora crassa; Neurospora crassa, read-out: ED50",2 µg/mL
same,phytotoxic effects,14 day old seedlings,no noticeable phytotoxic effects
same,fungicidal activity (in words),[3]; Pseudocercosporella herpotrichoides,inconsistent
same,cross-resistance with carbendazim,[3]; Table 2(d),no evidence of cross-resistance
same,IC50,"[4]; Oculimacula yallundae, read-out: Sensitivity ED50",17 µg/mL
same,anti-fungal activity (in words),Rhynchosporium secalis,active
same,level of activity compared with azole fungicides currently in use,Rhynchosporium secalis,"similar, or better"
same,anti-fungal activity (in words),Septoria tritici,active
same,level of activity compared with azole fungicides currently in use,Septoria tritici,"similar, or better"
same,MIC,"Septoria tritici; Zymoseptoria tritici, read-out: Sensitivity MIC",5 µg/mL
same,cross-resistance with thiabendazole,Helminthosporium solani,no evidence of cross-resistance
same,anti-fungal activity (in words),Botrytis cinerea,some activity
same,IC50,"Botrytis cinerea; Botrytis cinerea, read-out: Sensitivity ED50",> 20 µg/mL
same,fungicidal activity (in words),Aspergillus niger,active
same,inhibition at 4 µg/mL,Aspergillus niger; [7],30%
same,inhibition at 20 µg/mL,Aspergillus niger; [7],99%
same,inhibition at 100 µg/mL,Aspergillus niger; [7],100%
same,anti-fungal activity (in words),Fusarium graminearum; Fusarium graminearum,some activity
same,IC50,"Fusarium graminearum; Fusarium graminearum, read-out: Sensitivity ED50",20 µg/mL
same,fungicidal activity (in words),Pyricularia oryzae,active
same,inhibition at 4 µg/mL,Pyricularia oryzae; [6],75%
same,inhibition at 20 µg/mL,Pyricularia oryzae; [6],99%
same,inhibition at 100 µg/mL,Pyricularia oryzae; [6],100%
same,anti-fungal activity (in words),Ustilago maydis,active
same,level of activity compared with azole fungicides currently in use,Ustilago maydis,"similar, or better"
same,IC50,"Ustilago maydis; Mycosarcoma maydis, ATCC14826, read-out: ED50",3 µg/mL
"CCCN(CCOc1c(Cl)cc(Cl)cc1Cl)C(=O)n1ccnc1 [Prochloraz, reference compound]",inhibition at 1 µg/mL,"Aspergillus niger; Aspergillus niger, 1 mg/l, read-out: % inhibition of growth in colony diameter",97.1%
